According to patent US20120178626A1, “SYNERGISTIC HERBICIDAL COMPOSITION CONTAINING PROPYZAMIDE AND BENFLURALIN” (DOW AGROSCIENCES LLC, priority 2011, published 2012):

Experiments:
Test in all cases: Field trial, percent visual weed control, soil-applied tank mixes
Format in all cases: in vivo
Details in all cases: applied to soil
[1] = system: Venice mallow (Hibiscus trionum, HIBTR)
Protocol: (§1) These trials were conducted under field conditions in USA. Trial sites were located in California. The trials were conducted using normal small plot research methodology. Trial plots were between 2 to 4.5 meters (m) wide by 5.5 to 10 m long. All treatments were applied using a randomized complete block trial design with 4 replications per treatment. The trial sites had naturally occurring populations of weeds. The weed spectrum included, but was not limited to, redroot pigweed (Amaranthus retroflexus, AMARE), Shepherds purse (Capsella bursa-pastoris, CAPBP) and Venice mallow (Hibiscus trionum, HIBTR). Treatments consisted of tank mixes of the commercial formulations of propyzamide and benfluralin applied in water directly to the soil. The application volumes were between 93.5 to 187 liters per hectare (L/ha). All application were made using precision gas backpack hand sprayers using a 2 or 3 m boom using flat fan (80° or 110°) nozzles to broadcast the treatments on the soil.
(§2) The treated plots and control plots were rated blind at various intervals after application. Ratings were based of Percent (%) Visual weed control, where 0 corresponds to no control and 100 corresponds to complete control.
(§3) Data was collected for all trials and analyzed using various statistical methods.
(§4) Colby's equation was used to determine the herbicidal effects expected from the mixtures (Colby, S. R. Calculation of the synergistic and antagonistic response of herbicide combinations. Weeds 1967 15, 20-22).
(§5) The following equation was used to calculate the expected activity of mixtures containing two active ingredients, A and B:
(§6) A=observed efficacy of active ingredient A at the same concentration as used in the mixture;
(§7) B=observed efficacy of active ingredient B at the same concentration as used in the mixture.

[2] = system: Shepherds purse (Capsella bursa-pastoris, CAPBP)
Protocol: as §1, §2, §3, §4, §5, §6, §7

[3] = system: redroot pigweed (Amaranthus retroflexus, AMARE)
Protocol: as §1, §2, §3, §4, §5, §6, §7

[4] = propyzamide 0, benfluralin 340 g ai/ha, 50 Days After Application
[5] = propyzamide 210 g ai/ha, benfluralin 0, 50 Days After Application

SMILES	% Weed Control HIBTR, Ob (percent control observed) [1, 4]	% Weed Control CAPBP, Ob (percent control observed) ([2]; propyzamide 0, benfluralin 670 g ai/ha, 50 Days After Application)	% Weed Control AMARE, Ob (percent control observed) [3, 4]	% Weed Control HIBTR, Ob (percent control observed) [1, 5]	% Weed Control CAPBP, Ob (percent control observed) [2, 5]	% Weed Control AMARE, Ob (percent control observed) [3, 5]
CCCCN(CC)c1c([N+](=O)[O-])cc(C(F)(F)F)cc1[N+](=O)[O-] [Benfluralin, N-butyl-N-ethyl-2,6-dinitro-4-(trifluoromethyl)-benzenamine]	0%	3%	0%			
C#CC(C)(C)NC(=O)c1cc(Cl)cc(Cl)c1 [Propyzamide, 3,5-dichloro-N-(1,1-dimethyl-2-propynyl)-benzamide]				20%	20%	13%
